Experimental data published in paper PMC8722715 (Frontiers in Cell and Developmental Biology, 2021).
pIC50: −log10 of the molar value.

Legend:
hNaV1.7 channel = biological target: T1, hNaV1.7 channel (Homo sapiens, UniProt Q15858); assay: Automated patch-clamp block of hNaV1.7 peak Na+ current in CHO cells; assay type: cell-based; conditions: for hNaV1.7/hNaV1.6 selectivity ratio: inverse ratio of the mean IC50 values on hNaV1.7 (CHO) and hNaV1.6 (HEK-293) of Table 1; for hNaV1.7 IC50 versus WT: ratio of analogue mean IC50 to HwTx-IV WT mean IC50 on hNaV1.7; for pIC50: CHO cells stably expressing hNaV1.7, SyncroPatch 384 PE whole-cell, holding -100 mV, -10 mV test pulse 50 ms every 5 s, room temperature 18-22°C, 0.3% BSA, steady state or end of 15-min application, mean, S.E.M. and n cells
T1 construct: expressed in transfected cells
Method: (§1) CHO cells stably expressing the hNaV1.7 channel subtype were cultured in Dulbecco’s Modified Eagle’s Medium F-12 (DMEM/F12) supplemented with 10% fetal bovine serum, 2 mM glutamine, 200 μg/ml hygromycine B, 10 U/ml penicillin and 10 μg/ml streptomycin (Gibco, Grand Island, NY). HEK-293 cells stably expressing the hNaV1.6 channel subtype were cultured in Dulbecco’s Modified Eagle’s Medium (DMEM) supplemented with 10% fetal calf serum, 1 mM pyruvic acid, 4.5 g/L glucose, 2 mM glutamine, 800 μg/ml G418, 10 U/ml penicillin and 10 μg/ml streptomycin (Gibco, Grand Island, NY). All cell lines were incubated at 37°C in a 5% CO2 atmosphere. For electrophysiological recordings, cells were detached with trypsin, and floating single cells were diluted (∼300,000 cells/ml) in an extracellular solution containing (in mM): 140 NaCl, 4 KCl, 2 CaCl2, 1 MgCl2, 5 glucose and 10 HEPES (pH 7.4, osmolarity 298 mOsm), that was used throughout the experiments.
HwTx-IV analogues were investigated on CHO cells expressing hNav1.7 channel and HEK-293 cells expressing hNaV1.6 channel using the automated patch-clamp system from Nanion (SyncroPatch 384 PE; München, Germany). Chips with single-hole and high-resistance (∼6–7 MΩ) were used for both cell lines. Voltage pulses and whole-cell recordings were achieved using the PatchControl384 v1.5.2 software (Nanion) and the Biomek v1.0 interface (Beckman Coulter). Prior to recordings, dissociated cells were shaken at 200 RPM in a cell hotel reservoir at 10°C. After cell catching, sealing, whole-cell formation, liquid application, recording, and data acquisition were all performed sequentially and automatically. The intracellular solution contained (in mM): 110 CsF, 10 CsCl, 10 NaCl, 1 MgCl2, 1 CaCl2, 10 EGTA and 10 HEPES (pH 7.2, osmolarity 280 mOsm), and the extracellular solution was as described above. Whole-cell experiments were done at −100 mV holding potential and at room temperature (18–22°C), while currents triggered at either −10 or 0 mV test potential were sampled at 20 kHz. Stimulation frequency was set at 0.2 Hz. Each HwTx-IV analogue was prepared at various concentrations in the extracellular solution, itself supplemented with 0.3% of bovine serum albumin (BSA), also added in the control solution. […] Compound solutions were diluted 3 times in the patch-clamp recording well by adding 30–60 μl external solution, to reach the final reported concentration and the test volume of 90 μl. For establishing dose-response curves, the compounds were tested at a test potential of either −10 or 0 mV for 50 ms with a pulse every 5 s. Percentages of current inhibition were measured at steady-state of blockage or at the end of a 15-min application time.

hNaV1.6 channel = biological target: T2, hNaV1.6 channel (Homo sapiens, UniProt Q9UQD0); assay: Automated patch-clamp block of hNaV1.6 peak Na+ current in HEK-293 cells; assay type: cell-based; conditions: for hNaV1.6 IC50 versus WT: ratio of analogue mean IC50 to HwTx-IV WT mean IC50 on hNaV1.6; for pIC50: HEK-293 cells stably expressing hNaV1.6, SyncroPatch 384 PE whole-cell, holding -100 mV, 0 mV test pulse 50 ms every 5 s, room temperature 18-22°C, 0.3% BSA, steady state or end of 15-min application, mean, S.E.M. and n cells
T2 construct: expressed in transfected cells
Method: as §1
HwTx-IV analogues were investigated on CHO cells expressing hNav1.7 channel and HEK-293 cells expressing hNaV1.6 channel using the automated patch-clamp system from Nanion (SyncroPatch 384 PE; München, Germany). Chips with single-hole and high-resistance (∼6–7 MΩ) were used for both cell lines. Voltage pulses and whole-cell recordings were achieved using the PatchControl384 v1.5.2 software (Nanion) and the Biomek v1.0 interface (Beckman Coulter). Prior to recordings, dissociated cells were shaken at 200 RPM in a cell hotel reservoir at 10°C. After cell catching, sealing, whole-cell formation, liquid application, recording, and data acquisition were all performed sequentially and automatically. The intracellular solution contained (in mM): 110 CsF, 10 CsCl, 10 NaCl, 1 MgCl2, 1 CaCl2, 10 EGTA and 10 HEPES (pH 7.2, osmolarity 280 mOsm), and the extracellular solution was as described above. Whole-cell experiments were done at −100 mV holding potential and at room temperature (18–22°C), while currents triggered at either −10 or 0 mV test potential were sampled at 20 kHz. Stimulation frequency was set at 0.2 Hz. Each HwTx-IV analogue was prepared at various concentrations in the extracellular solution, itself supplemented with 0.3% of bovine serum albumin (BSA), also added in the control solution. The peptides were distributed in 384-well microplates according to the number of compounds to be tested (generally four), the concentration range defined from the IC50 of wild-type HwTx-IV, and the number of cells desired for each experimental condition. Compound solutions were diluted 3 times in the patch-clamp recording well by adding 30–60 μl external solution, to reach the final reported concentration and the test volume of 90 μl. For establishing dose-response curves, the compounds were tested at a test potential of either −10 or 0 mV for 50 ms with a pulse every 5 s. Percentages of current inhibition were measured at steady-state of blockage or at the end of a 15-min application time.

T2 sequence (Q9UQD0 whole entry): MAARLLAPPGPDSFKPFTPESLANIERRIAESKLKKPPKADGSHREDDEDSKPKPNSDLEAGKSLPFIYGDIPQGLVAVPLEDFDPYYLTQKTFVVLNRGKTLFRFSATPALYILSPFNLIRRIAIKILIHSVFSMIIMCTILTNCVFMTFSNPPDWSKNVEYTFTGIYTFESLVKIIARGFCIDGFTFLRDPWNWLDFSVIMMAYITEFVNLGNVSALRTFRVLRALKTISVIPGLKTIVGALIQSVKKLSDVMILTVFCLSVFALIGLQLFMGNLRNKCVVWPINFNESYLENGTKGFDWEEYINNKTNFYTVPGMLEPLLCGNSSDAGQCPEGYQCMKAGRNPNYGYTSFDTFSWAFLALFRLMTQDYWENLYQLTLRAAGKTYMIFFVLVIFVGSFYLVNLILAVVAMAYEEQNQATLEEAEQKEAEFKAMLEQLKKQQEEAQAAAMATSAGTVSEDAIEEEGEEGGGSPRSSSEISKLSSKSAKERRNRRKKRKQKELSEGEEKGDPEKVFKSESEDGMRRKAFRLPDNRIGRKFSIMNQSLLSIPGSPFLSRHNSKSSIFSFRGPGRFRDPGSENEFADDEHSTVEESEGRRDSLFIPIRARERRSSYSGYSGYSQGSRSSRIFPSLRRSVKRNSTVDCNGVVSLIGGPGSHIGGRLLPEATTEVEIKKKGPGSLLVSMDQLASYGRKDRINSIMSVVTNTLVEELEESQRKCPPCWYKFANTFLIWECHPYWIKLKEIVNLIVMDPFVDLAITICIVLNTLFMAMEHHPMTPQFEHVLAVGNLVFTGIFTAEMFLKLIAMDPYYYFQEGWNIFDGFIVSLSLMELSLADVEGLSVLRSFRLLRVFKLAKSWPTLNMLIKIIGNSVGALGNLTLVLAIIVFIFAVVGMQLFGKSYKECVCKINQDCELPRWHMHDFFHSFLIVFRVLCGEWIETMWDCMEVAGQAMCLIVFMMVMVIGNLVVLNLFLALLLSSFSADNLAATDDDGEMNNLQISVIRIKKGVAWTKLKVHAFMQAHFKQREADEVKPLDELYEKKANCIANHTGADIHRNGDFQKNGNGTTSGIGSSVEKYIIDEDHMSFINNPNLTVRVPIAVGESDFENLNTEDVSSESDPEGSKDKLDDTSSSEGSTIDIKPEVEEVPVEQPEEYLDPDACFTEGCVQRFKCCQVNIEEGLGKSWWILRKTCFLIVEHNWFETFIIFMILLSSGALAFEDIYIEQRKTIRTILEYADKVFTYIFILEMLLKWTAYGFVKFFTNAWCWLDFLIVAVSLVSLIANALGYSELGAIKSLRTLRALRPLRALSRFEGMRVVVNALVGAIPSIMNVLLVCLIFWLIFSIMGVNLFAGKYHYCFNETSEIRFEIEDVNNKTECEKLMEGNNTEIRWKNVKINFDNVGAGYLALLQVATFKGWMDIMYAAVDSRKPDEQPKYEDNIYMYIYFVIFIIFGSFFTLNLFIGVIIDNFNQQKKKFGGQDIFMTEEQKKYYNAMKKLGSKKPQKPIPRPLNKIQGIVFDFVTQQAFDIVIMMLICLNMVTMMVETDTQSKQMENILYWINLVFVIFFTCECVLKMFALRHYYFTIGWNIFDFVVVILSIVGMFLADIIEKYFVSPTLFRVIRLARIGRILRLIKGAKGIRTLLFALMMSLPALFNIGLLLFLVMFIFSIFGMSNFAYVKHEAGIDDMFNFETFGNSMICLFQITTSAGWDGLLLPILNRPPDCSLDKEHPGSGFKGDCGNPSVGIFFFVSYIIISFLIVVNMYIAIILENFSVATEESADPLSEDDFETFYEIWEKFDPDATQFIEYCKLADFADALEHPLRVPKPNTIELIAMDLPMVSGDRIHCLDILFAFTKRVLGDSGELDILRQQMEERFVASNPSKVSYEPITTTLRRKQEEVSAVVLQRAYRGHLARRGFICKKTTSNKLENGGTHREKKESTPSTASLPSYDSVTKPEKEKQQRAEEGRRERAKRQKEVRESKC
T1 sequence (Q15858 whole entry): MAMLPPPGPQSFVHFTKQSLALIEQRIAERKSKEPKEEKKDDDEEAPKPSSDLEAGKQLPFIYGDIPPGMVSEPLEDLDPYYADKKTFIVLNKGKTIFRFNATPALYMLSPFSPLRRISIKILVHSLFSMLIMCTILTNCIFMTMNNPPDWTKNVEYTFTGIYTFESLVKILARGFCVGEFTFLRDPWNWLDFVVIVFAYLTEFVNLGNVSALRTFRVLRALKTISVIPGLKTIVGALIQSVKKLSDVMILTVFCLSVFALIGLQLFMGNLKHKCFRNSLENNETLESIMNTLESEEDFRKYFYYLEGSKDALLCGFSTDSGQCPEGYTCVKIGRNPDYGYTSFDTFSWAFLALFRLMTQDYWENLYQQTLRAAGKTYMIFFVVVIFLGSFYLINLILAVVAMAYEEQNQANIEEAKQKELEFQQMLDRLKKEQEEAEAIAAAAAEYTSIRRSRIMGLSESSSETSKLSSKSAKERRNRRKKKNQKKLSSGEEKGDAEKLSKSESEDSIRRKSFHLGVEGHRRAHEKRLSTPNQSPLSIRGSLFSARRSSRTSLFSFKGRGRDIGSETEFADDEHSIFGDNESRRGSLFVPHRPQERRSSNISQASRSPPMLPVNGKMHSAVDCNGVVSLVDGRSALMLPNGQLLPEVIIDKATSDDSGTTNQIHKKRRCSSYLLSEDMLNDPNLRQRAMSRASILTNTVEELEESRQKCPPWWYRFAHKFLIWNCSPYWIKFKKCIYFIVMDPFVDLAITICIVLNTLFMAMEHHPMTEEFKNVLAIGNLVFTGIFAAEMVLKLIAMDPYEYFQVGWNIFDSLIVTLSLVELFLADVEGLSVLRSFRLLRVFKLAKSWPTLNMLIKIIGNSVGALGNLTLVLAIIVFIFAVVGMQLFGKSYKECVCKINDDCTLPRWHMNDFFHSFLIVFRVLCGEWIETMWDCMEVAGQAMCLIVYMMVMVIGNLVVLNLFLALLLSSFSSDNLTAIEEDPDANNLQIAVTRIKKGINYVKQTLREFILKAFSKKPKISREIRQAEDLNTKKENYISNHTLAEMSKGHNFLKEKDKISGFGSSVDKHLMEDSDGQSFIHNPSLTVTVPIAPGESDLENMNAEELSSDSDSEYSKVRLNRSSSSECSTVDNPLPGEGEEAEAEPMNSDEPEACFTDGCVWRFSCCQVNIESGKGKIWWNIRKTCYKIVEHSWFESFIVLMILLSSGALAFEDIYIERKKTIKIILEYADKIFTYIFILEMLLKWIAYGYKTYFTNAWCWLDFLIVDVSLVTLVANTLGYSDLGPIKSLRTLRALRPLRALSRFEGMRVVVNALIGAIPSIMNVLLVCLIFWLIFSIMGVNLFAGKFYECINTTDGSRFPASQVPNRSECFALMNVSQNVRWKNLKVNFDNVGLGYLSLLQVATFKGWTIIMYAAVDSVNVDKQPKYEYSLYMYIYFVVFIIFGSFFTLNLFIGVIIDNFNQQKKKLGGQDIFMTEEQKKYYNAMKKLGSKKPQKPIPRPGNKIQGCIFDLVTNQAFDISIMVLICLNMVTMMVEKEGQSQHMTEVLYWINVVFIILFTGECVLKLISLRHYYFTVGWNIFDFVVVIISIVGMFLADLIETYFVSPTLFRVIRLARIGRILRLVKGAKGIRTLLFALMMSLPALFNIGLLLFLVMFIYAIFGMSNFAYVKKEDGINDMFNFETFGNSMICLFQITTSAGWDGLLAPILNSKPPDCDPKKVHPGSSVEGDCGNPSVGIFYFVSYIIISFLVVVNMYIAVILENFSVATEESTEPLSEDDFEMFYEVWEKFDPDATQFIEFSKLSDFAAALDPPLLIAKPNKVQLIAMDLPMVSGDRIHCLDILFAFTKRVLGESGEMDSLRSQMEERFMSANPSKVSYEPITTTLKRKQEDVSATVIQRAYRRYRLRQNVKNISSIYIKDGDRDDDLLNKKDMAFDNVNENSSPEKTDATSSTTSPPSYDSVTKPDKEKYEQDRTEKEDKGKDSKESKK

CC[C@H](C)[C@H](NC(=O)[C@H](CCC(N)=O)NC(=O)[C@H](Cc1ccc(O)cc1)NC(=O)[C@H](CCCCN)NC(=O)[C@@H]1CSSC[C@@H]2NC(=O)[C@H](CCC(N)=O)NC(=O)[C@H](CC(=O)O)NC(=O)[C@H](CC(N)=O)NC(=O)[C@H](CO)NC(=O)[C@@H]3CCCN3C(=O)[C@H](CC(N)=O)NC(=O)[C@@H]3CSSC[C@H](NC(=O)[C@H](C(C)C)NC(=O)[C@H](CC(C)C)NC(=O)[C@H](CCCCN)NC(=O)[C@H](CO)NC(=O)[C@H](CO)NC(=O)[C@H](CCCCN)NC(=O)[C@H](CSSC[C@H](NC(=O)CN)C(=O)N[C@@H](CC(C)C)C(=O)N[C@@H](CCC(=O)O)C(=O)N[C@@H]([C@@H](C)CC)C(=O)N[C@@H](Cc4ccccc4)C(=O)N[C@@H](CCCCN)C(=O)N[C@@H](C)C(=O)N3)NC2=O)C(=O)N[C@@H](CO)C(=O)N[C@@H](CCCNC(=N)N)C(=O)N[C@@H](CCCCN)C(=O)N[C@@H]([C@@H](C)O)C(=O)N[C@@H](CCCNC(=N)N)C(=O)N[C@@H](Cc2c[nH]c3ccccc23)C(=O)N1)C(N)=O [HwTx-IV E^1G]
hNaV1.7/hNaV1.6 selectivity ratio (hNaV1.7 channel; listed as E^4K): less than 2
hNaV1.7/hNaV1.6 selectivity ratio (hNaV1.7 channel; listed as HwTx-IV E^4K): ~1
hNaV1.7 IC50 versus WT (hNaV1.7 channel): 0.70
hNaV1.7 IC50 versus WT (hNaV1.7 channel; listed as HwTx-IV E^4G): 0.16
hNaV1.7 IC50 versus WT (hNaV1.7 channel; listed as HwTx-IV E^4K): 1.43
hNaV1.6 IC50 versus WT (hNaV1.6 channel): 0.28
hNaV1.6 IC50 versus WT (hNaV1.6 channel; listed as HwTx-IV E^4G): 0.03
hNaV1.6 IC50 versus WT (hNaV1.6 channel; listed as HwTx-IV E^4K): 0.09
hNaV1.6 IC50 versus WT (hNaV1.6 channel; listed as HwTx-IV E^4R): 0.05

CC[C@H](C)[C@H](NC(=O)[C@H](CCC(N)=O)NC(=O)[C@H](Cc1ccc(O)cc1)NC(=O)[C@H](CCCCN)NC(=O)[C@@H]1CSSC[C@@H]2NC(=O)[C@H](CCC(N)=O)NC(=O)[C@H](CC(=O)O)NC(=O)[C@H](CC(N)=O)NC(=O)[C@H](CO)NC(=O)[C@@H]3CCCN3C(=O)[C@H](CC(N)=O)NC(=O)[C@@H]3CSSC[C@H](NC(=O)[C@H](C(C)C)NC(=O)[C@H](CC(C)C)NC(=O)[C@H](CCCCN)NC(=O)[C@H](CO)NC(=O)[C@H](CO)NC(=O)[C@H](CCCCN)NC(=O)[C@H](CSSC[C@H](NC(=O)[C@@H](N)CCC(=O)O)C(=O)N[C@@H](CC(C)C)C(=O)NCC(=O)N[C@@H]([C@@H](C)CC)C(=O)N[C@@H](Cc4ccccc4)C(=O)N[C@@H](CCCCN)C(=O)N[C@@H](C)C(=O)N3)NC2=O)C(=O)N[C@@H](CO)C(=O)N[C@@H](CCCNC(=N)N)C(=O)N[C@@H](CCCCN)C(=O)N[C@@H]([C@@H](C)O)C(=O)N[C@@H](CCCNC(=N)N)C(=O)N[C@@H](Cc2c[nH]c3ccccc23)C(=O)N1)C(=O)O [HwTx-IV E^4G/CterCOOH]
pIC50 (hNaV1.7 channel): 7.83
hNaV1.7 IC50 versus WT (hNaV1.7 channel): 1.51
pIC50 (hNaV1.6 channel): 7.26
hNaV1.6 IC50 versus WT (hNaV1.6 channel): 0.24

CC[C@H](C)[C@H](NC(=O)[C@H](CCC(N)=O)NC(=O)[C@H](Cc1ccc(O)cc1)NC(=O)[C@H](CCCCN)NC(=O)[C@@H]1CSSC[C@@H]2NC(=O)[C@H](CCC(N)=O)NC(=O)[C@H](CC(=O)O)NC(=O)[C@H](CC(N)=O)NC(=O)[C@H](CO)NC(=O)[C@@H]3CCCN3C(=O)[C@H](CC(N)=O)NC(=O)[C@@H]3CSSC[C@H](NC(=O)[C@H](C(C)C)NC(=O)[C@H](CC(C)C)NC(=O)[C@H](CCCCN)NC(=O)[C@H](CO)NC(=O)[C@H](CO)NC(=O)[C@H](CCCCN)NC(=O)[C@H](CSSC[C@H](NC(=O)[C@@H](N)CCC(=O)O)C(=O)N[C@@H](CC(C)C)C(=O)N[C@@H](CCCCN)C(=O)N[C@@H]([C@@H](C)CC)C(=O)N[C@@H](Cc4ccccc4)C(=O)N[C@@H](CCCCN)C(=O)N[C@@H](C)C(=O)N3)NC2=O)C(=O)N[C@@H](CO)C(=O)N[C@@H](CCCNC(=N)N)C(=O)N[C@@H](CCCCN)C(=O)N[C@@H]([C@@H](C)O)C(=O)N[C@@H](CCCNC(=N)N)C(=O)N[C@@H](Cc2c[nH]c3ccccc23)C(=O)N1)C(=O)O [HwTx-IV E^4K/CterCOOH]
pIC50 (hNaV1.7 channel): 7.92
hNaV1.7 IC50 versus WT (hNaV1.7 channel): 1.20
pIC50 (hNaV1.6 channel): 6.87
hNaV1.6 IC50 versus WT (hNaV1.6 channel): 0.60

CC[C@H](C)[C@H](NC(=O)[C@H](CCC(N)=O)NC(=O)[C@H](Cc1c[nH]c2ccccc12)NC(=O)[C@H](CCCCN)NC(=O)[C@@H]1CSSC[C@@H]2NC(=O)[C@H](CCC(N)=O)NC(=O)[C@H](CC(=O)O)NC(=O)[C@H](CC(N)=O)NC(=O)[C@H](CO)NC(=O)[C@@H]3CCCN3C(=O)[C@H](CC(N)=O)NC(=O)[C@@H]3CSSC[C@H](NC(=O)[C@H](C(C)C)NC(=O)[C@H](CC(C)C)NC(=O)[C@H](CCCCN)NC(=O)[C@H](CO)NC(=O)[C@H](CO)NC(=O)[C@H](CCCCN)NC(=O)[C@H](CSSC[C@H](NC(=O)[C@@H](N)CCC(=O)O)C(=O)N[C@@H](CC(C)C)C(=O)N[C@@H](CCCCN)C(=O)N[C@@H]([C@@H](C)CC)C(=O)N[C@@H](Cc4ccccc4)C(=O)N[C@@H](CCCCN)C(=O)N[C@@H](C)C(=O)N3)NC2=O)C(=O)N[C@@H](CO)C(=O)N[C@@H](C)C(=O)N[C@@H](CCCCN)C(=O)N[C@@H]([C@@H](C)O)C(=O)N[C@@H](CCCNC(=N)N)C(=O)N[C@@H](Cc2c[nH]c3ccccc23)C(=O)N1)C(N)=O [HwTx-IV E^4K/R ^26A/Y^33W]
pIC50 (hNaV1.7 channel): 9.05
hNaV1.7/hNaV1.6 selectivity ratio (hNaV1.7 channel): above 46
hNaV1.7 IC50 versus WT (hNaV1.7 channel): 0.09
pIC50 (hNaV1.6 channel): 7.06
hNaV1.6 IC50 versus WT (hNaV1.6 channel): 0.38
